The source of these data is a melting point compilation (Tetko et al.; mined from patent text by program, amines drawn as free bases though some values may be those of a salt).

Where only a bound is given, the exact number is not on record here.

`CCC(=O)c1ccccc1CS(=O)(=O)NC(=O)Nc1nc(OC)cc(OC)n1` gave a melting point of 155 to 158 °C. In turn, `O=C(c1ccc(-c2ccccc2)cc1)N1Cc2ccccc2Oc2ccccc21` had a melting point of 93 to 95 °C.

On to `Cc1cn(C(C)(C)C(=O)N(C)C)nc1-c1cc(Cl)ccc1Cl`, for which the melting point is 130 °C. `O=C(Oc1ccc(Cl)cc1)C1CCCc2ccc([N+](=O)[O-])cc21` (centres undefined) registered a melting point of 108 to 109 °C. `CC(C)(C)C(=O)C(F)n1cncn1` (centres undefined) gave a melting point of 54 to 55 °C. In turn, `CCCC1(CCC)CCCc2c(Nc3ccc(Cl)cc3Cl)nc(C)nc21` registered a melting point of 238 to 244 °C.

Compound `Cc1nc(-n2ccn(Cc3ccc(F)cc3)c2=O)sc1C(=O)NCc1cccnc1` returned a melting point of 158 to 159 °C.

As to `O=C(O)Cc1ccc2c(c1)CCCOO2`, the melting point lay in the range of 99 to 101 °C. With `CC(=O)NCCn1ccc(=O)c(OCc2ccccc2)c1C(O)c1ccccc1` (centres undefined) the figure was 180 to 182 °C; with `Nc1cnc2ccsc2c1`, 121 to 123 °C; with `CC(C)c1ccc(N2C(=O)CN(c3cccc(C(=O)O)c3)C2=O)cc1`, 249 to 252 °C.

`Cn1cnc(-c2ccccc2)c1-c1nn(-c2cccc(C(F)(F)F)c2)ccc1=O` yielded a melting point of 214 to 216 °C. In turn, `COc1cccc(-c2coc3ccc(-c4nnc(C)o4)cc23)c1` came in with a melting point of 127 to 128 °C. `CC(C(=O)O)c1ccc2c(-c3ccc(F)cc3)noc2c1` (centres undefined) returned a melting point of 151 to 154 °C. Turning to `CCOC(=O)C=CC(=O)c1ccc(Cl)cc1`, the melting point is 62.5 to 63.5 °C. On to `CCC1(C)CCC(N)=CC1=O` (centres undefined), for which the melting point was 99 to 100 °C. Regarding `OCc1csc(=S)n1-c1ccc(F)c(F)c1F`, the melting point lay within 113 to 116 °C. With `COCCOCc1c(CN(C)CC(O)c2cccc(OC)c2)sc2c(=O)c(C(=O)NCc3ccc(Cl)cc3)cn(C)c12` (centres undefined) the figure was 135 to 138 °C; with `O=S(=O)(c1ccc(-n2cccc2)cc1)c1cccc2cnccc12`, 207 to 210 °C. `Cc1ccccc1NC(=O)NCC1(c2ccccc2)CCCCC1` showed a melting point of 171 to 174 °C. `O=C(NC1CCN(CCc2ccccc2)C1)C12CC3CC(CC(C3)C1)C2` (centres undefined) gave a melting point of 119 to 121 °C. The compound `Cc1cccc(Sc2ccc3c(c2)CC[C@H]2NC(=O)CC[C@]32C)c1` displayed a melting point of 189 to 191 °C.

For `CC(C)OC(=O)CCC(=O)c1ccc(Cl)c(S(N)(=O)=O)c1`, the melting point was 128 to 130 °C.

For the compound `OC(c1ccc(Cl)cc1)(c1ccccc1F)C1CO1` (centres undefined), the melting point was 120 to 122 °C. As for `C=CCc1ccc2c(c1O)CCC(=O)N2c1ccccc1`, the melting point lay in the range of 177 to 178 °C. `O=C1c2ccccc2COc2ccc(CCOC(c3ccccc3)(c3ccccc3)c3ccccc3)cc21` returned a melting point of 132 to 134 °C.

The compound `COCC1CN(c2ccc(C3CCC(O)CC3)cn2)C(=O)O1` (racemic) registered a melting point of 142 to 143 °C. On to `Cc1cc(C)c(-n2ccc3c(OCc4ccc(C(F)(F)F)cc4)nn(C)c(=O)c32)c(C)c1`, for which the melting point lay in the range of 178 to 180 °C.

Take `Cn1c(CC(=O)O)c(C(=O)O)c(Br)c1C(=O)c1ccc(Cl)cc1`: the melting point was 261 to 263 °C. The compound `CO[C@H]1CC[C@H]([C@H]2CC[C@H](CCC3OCCO3)CC2)CC1` registered a melting point of 74 °C. With `O=C1C=C(C2CCC(c3ccc(Cl)cc3)CC2)C(=O)c2ccccc21` (centres undefined) the figure was 147 to 149 °C; with `CC(=O)O[C@H]1[C@H](NC(C)=NC#N)c2cc(C#N)ccc2OC1(C)C` (relative stereo), 236 to 238 °C. In the case of `COC(=O)c1ccc(-c2nnc(-c3ccc(C(F)(F)F)cc3)o2)c(N)c1`, the melting point was 237 to 238 °C.

In turn, `COc1ccc(-c2c3c(cc4ccc(OCc5ccccc5)cc24)C(=O)NC3=O)cc1` yielded a melting point of 208 to 210 °C. To `Cc1nc2cc(OCc3ccccc3)c(OCc3ccccc3)cc2nc1C(=O)O` belongs 198 to 200 °C; to `CCCc1ccc(Br)nn1`, 35 to 36 °C; to `Cc1nn(-c2ccc(C#N)c(Cl)c2)c(C)c1Cc1ccc(C(=O)N2CCC(O)CC2)cc1`, 153 to 154 °C. With `CCOc1nsc(S(C)(=O)=O)c1Cl` the figure was 85 to 87 °C; with `CC(c1ccccc1)C(Oc1c(Br)cc(-c2c3ccccc3c(Br)c3sc4ccccc4c23)cc1Br)C(=O)O` (centres undefined), 115 to 120 °C. Compound `CC(C)(C)OC(=O)NC12CCC1CNC2` (centres undefined) gave a melting point of 113 to 116 °C. Compound `Cn1cnc(-c2ccc(NC(=C3C(=O)Oc4ccccc43)c3ccc(C(C)(C)N)cc3)cc2)c1` yielded a melting point of over 280 °C. With `Cc1ccc(S(=O)(=O)Cc2c(C(=O)O)nn(-c3ccccc3)c2O)cc1` the figure was 228 °C. For `O=C1NC(O)(C(Cl)(Cl)Cl)NC1=O`, the melting point is 245 °C. Regarding `NC(=O)Nc1ccc(C(O)(C(F)(F)F)C(F)(F)F)cc1`, the melting point was 176 to 179 °C. `COc1ccc(CC(C)(C)C(=O)O)cc1C(=O)NCc1ccc(C(F)(F)F)cc1`: the melting point is 151 to 152 °C. For the compound `O=C(/C=C/[C@@H]1[C@H]2CC(=O)O[C@H]2C[C@H]1OC(=O)c1ccc(-c2ccccc2)cc1)CCc1ccccc1`, the melting point lay in the range of 129 to 130 °C. As to `O=C1C=CC(=O)N1c1cccc(Oc2cccc(Oc3cccc(N4C(=O)C=CC4=O)c3)c2)c1`, the melting point was 138 to 140 °C. For `Cc1nc(C)c(Cl)c(NCc2nccc(SCCCCSCCn3c([N+](=O)[O-])cnc3C)c2C)n1`, the melting point was in the range of 142 to 144 °C. Regarding `N#Cc1ccccc1OCC1CN=C(N)O1` (centres undefined), the melting point was 146 °C.

Regarding `COC(COc1ccc(Oc2ccccc2)cc1)OC`, the melting point was determined as 76.7 °C. On to `CC(C)(C)CC(C)(C)c1cc(N=Nc2ccc(-c3ccccc3)cc2[N+](=O)[O-])c(O)c(C(C)(C)c2ccccc2)c1`, for which the melting point was 176 to 179 °C. With `CC(C)(C)OC(=O)NC(CC(=O)ON1C(=O)CCC1=O)c1ccc(-c2ccccc2)cc1` (centres undefined), the melting point is 161 °C. In turn, `COc1ccc(NC(=O)c2ccccc2OC)cc1` returned a melting point of 49.5 to 51.2 °C. `N#CCC1(C#N)CCC(=O)CC1` had a melting point of 154 to 155 °C. On to `COc1cc(=O)[nH]c2cc(O)ccc2c1=O`, for which the melting point is 273 to 275 °C. Compound `CC(=O)Nc1ccc(OCc2nc3ccccc3s2)cc1` showed a melting point of 168 to 170 °C.

The compound `CC(=O)NCCc1ccc(CN2CCN(c3ccc(F)cc3)CC2)cc1` had a melting point of 121 to 123 °C. `Nc1cccc(-c2ccc(CCN3CCN(c4nnnn4-c4ccccc4)CC3)cc2)n1` displayed a melting point of 212 to 214 °C. `Oc1cccc(C2CCCN2Cc2ccncc2)c1` (centres undefined) had a melting point of 138 °C. With `Clc1cccc2c1sc1ncnn12`, the melting point came to 203 °C. For `COC(=O)c1sccc1S(=O)(=O)N=C(N)NNc1nc(C)cc(C)n1`, the melting point stood at 213 °C. With `CCOC(=O)CCCOc1c(Br)cc(Br)c(C(N)=O)c1Br`, the melting point lay in the range of 138 to 140 °C. The compound `FC(F)(F)c1cccc(N2CCN(Cc3cn4cc(Cl)ccc4n3)CC2)c1` returned a melting point of 145 to 146 °C. With `CCOC(=O)c1cc(Cl)n2nc(-c3ccccc3)cc2n1` the figure was 135 to 137 °C.

Broadly, the melting point is the temperature, or range, at which the solid turns liquid.
